This passage reports pest or weed control and mortality results from US20230028441A1, “NOVEL HETEROARYL-TRIAZOLE COMPOUNDS AS PESTICIDES” (Bayer Aktiengesellschaft, priority 2019, published 2023).

As a reminder, the mortality is the percentage killed.

Each structure is given as a SMILES string.

Common to all, as to type: in vivo
Assay [1] concerns adult engorged female ticks (Rhipicephalus microplus). Kind of assay: Rhipicephalus (Boophilus) microplus injection test. As to conditions: 168 h, egg deposition after 7 days, read-out: efficacy (infertile eggs); for pest or weed control at 0.004 mg: 4 μg/animal; for pest or weed control at 0.02 mg: 20 μg/animal. The procedure: Solvent: dimethyl sulfoxide
To produce a suitable preparation of active compound, 10 mg of active compound are dissolved in 0.5 mL solvent, and the concentrate is diluted with solvent to the desired concentration.
Five adult engorged female ticks (Rhipicephalus microplus) are injected with 1 μL compound solution into the abdomen. The ticks are transferred into replica plates and incubated in a climate chamber.
After 7 days egg deposition of fertile eggs is monitored. Eggs where fertility is not visible are stored in a climate chamber till hatching after about 42 days. An efficacy of 100% means all eggs are infertile; 0% means all eggs are fertile.

The subject of assay [2] is fall armyworm larvae (Spodoptera frugiperda). Put plainly: Spodoptera frugiperda spray test (maize leaf sections). As to conditions: 168 h. As for the experimental part:
Solvent: 78.0 parts by weight acetone • 1.5 parts by weight dimethylformamide
(§1) Emulsifier: alkylarylpolyglycol ether
To produce a suitable preparation of active compound, 1 part by weight of active compound is mixed with the stated amount of solvents and is diluted with water, containing an emulsifier concentration of 1000 ppm, to the desired concentration. Further test concentrations are prepared by dilution with emulsifier containing water.
Maize (Zea mays) leaf sections are sprayed with a preparation of the active ingredient of the desired concentration. Once dry, the leaf sections are infested with fall armyworm larvae (Spodoptera frugiperda).
After 7 days mortality in % is determined. 100% means all caterpillars have been killed and 0% means none of the caterpillars have been killed.

Assay [3] has as its system larvae of the banded cucumber beetle (Diabrotica balteata). Kind of assay: Diabrotica balteata spray test. As to conditions: 168 h, after 7 days, wheat seeds, read-out: efficacy (seedlings grown up); for pest or weed control at 32 µg/disc, 100 g/ha: 100 g/ha (=32 μg/well). As for the experimental part: Solvent: 78.0 parts by weight of acetone • • 1.5 parts by weight of dimethylformamide
as §1
To produce a suitable preparation of active compound, 1 part by weight of active compound is mixed with the stated amount of solvent, and the concentrate is diluted with water, containing an emulsifier concentration of 1000 ppm, to the desired concentration. Further test concentrations are prepared by dilution with emulsifier containing water.
Soaked wheat seeds (Triticum aestivum) are placed in a multiple well plate filled with agar and some water and are incubated for 1 day to germinate (5 seeds per well). The germinated wheat seeds are sprayed with a test solution containing the desired concentration of the active ingredient. Afterwards each unit is infected with 10-20 larvae of the banded cucumber beetle (Diabrotica balteata).
After 7 days efficacy in % is determined. 100% means all the seedlings have grown up like in the untreated, uninfected control; 0% means none of the seedlings have grown.

With `CC(NC(=O)c1cc(Cl)cc(C(F)(F)F)c1)c1nc([S+]([O-])CC(F)(F)F)nn1-c1ccc(Cl)cn1` (stereo not drawn) [I-068], in assay [1], the pest or weed control at 0.004 mg worked out at 80% and the pest or weed control at 0.02 mg came out at 100%. Turning to `CC(NC(=O)c1cc(Cl)cc(C(F)(F)F)c1)c1nc(NC(=O)OC(C)(C)C)nn1-c1ncccn1` (racemic) [I-001, tert-butyl N-[5-[1-[[3-chloro-5-(trifluoromethyl)benzoyl]amino]ethyl]-1-pyrimidin-2-yl-1,2,4-triazol-3-yl]carbamate], in assay [1], the pest or weed control at 0.004 mg stood at 100% and the pest or weed control at 0.02 mg was 100%. The compound further displayed a mortality at 500 g/ha in assay [2] of 100%. Besides, the pest or weed control at 160 µg/disc, 500 g/ha in assay [3] (500 g/ha (=160 μg/well)) came to 100%.

Regarding `C[C@H](NC(=O)c1cc(Br)cc(C(F)(F)F)c1)c1nc(N)nn1-c1ccc(C#N)cn1` [I-172], the mortality at 100 g/ha in assay [2] is 100%. Further, the pest or weed control at 32 µg/disc, 100 g/ha in assay [3] worked out at 100%. In the case of `CC(NC(=O)c1cc(Cl)cc(S(C)(=O)=O)c1)c1nc(SCC(F)(F)F)nn1-c1ccc(Cl)cn1` (stereo not drawn) [I-065], in assay [1], the pest or weed control at 0.004 mg amounted to 100% and the pest or weed control at 0.02 mg came out at 100%. With `CC(NC(=O)c1cc(Cl)cc(S(C)(=O)=O)c1)c1nc(NC(=O)OC(C)(C)C)nn1-c1ccc(Cl)cn1` (stereo not drawn) [I-002], in assay [1], the pest or weed control at 0.004 mg stood at 100% and the pest or weed control at 0.02 mg was 100%. In assay [2], `CON(C)c1nc([C@H](C)NC(=O)c2cc(Br)cc(Br)c2)n(-c2ncccn2)n1` [I-150] gave a mortality at 100 g/ha of 100%. Also, the pest or weed control at 32 µg/disc, 100 g/ha in assay [3] is 100%.

Take `CNc1nc([C@H](C)NC(=O)c2cc(OC(F)(F)F)cc(S(C)(=O)=O)c2)n(-c2ncc(C#N)s2)n1` [I-212]: the mortality at 100 g/ha in assay [2] amounted to 100%. For the compound `CC(NC(=O)c1cc(Cl)cc(C(F)(F)F)c1)c1nc(-c2ccc(Cl)nc2)nn1-c1ncccn1` (stereo not drawn) [I-043], the pest or weed control at 0.004 mg in assay [1] turned out to be 80%. Regarding `CC(NC(=O)c1cc(Br)cc(C(F)(F)F)c1)c1nc(NC(=O)OC(C)(C)C)nn1-c1ccc(C#N)cn1` (stereo not drawn) [I-102], the pest or weed control at 0.004 mg in assay [1] came to 100%. On to `C[C@H](NC(=O)c1cc(C(F)(F)F)cc(C(F)(F)F)c1)c1nc(N2CCOCC2)nn1-c1ncc(C#N)s1` [I-199], for which the pest or weed control at 32 µg/disc, 100 g/ha in assay [3] stood at 100%. Still for that read-out and setting: for `CC(NC(=O)c1cc(C(F)(F)F)cc(C(F)(F)F)c1)c1nc(Cc2c(F)cccc2F)nn1-c1ncccn1` (stereo not drawn) [I-086] the value was 100%.

As for `CC(NC(=O)c1cc(C(F)(F)F)cc(C(F)(F)F)c1)c1nc(NC(=O)OC(C)(C)C)nn1-c1ccc(C#N)cn1` (stereo not drawn) [I-096], the pest or weed control at 0.004 mg in assay [1] worked out at 100%. Take `CC(NC(=O)c1cc(Cl)cc(S(C)(=O)=O)c1)c1nc(N2CCCCC2)nn1-c1ncccn1` (stereo not drawn) [I-198]: the pest or weed control at 32 µg/disc, 100 g/ha in assay [3] is 80%. `CNc1nc([C@H](C)NC(=O)c2cc(OC(F)(F)F)cc(C3CC3)c2)n(-c2ncc(C#N)s2)n1` [I-206]: the mortality at 100 g/ha in assay [2] was 100%.

Take `CC(NC(=O)c1cc(Br)cc(Br)c1)c1nc(NC(=O)OC(C)(C)C)nn1-c1ccc(C#N)cn1` (stereo not drawn) [I-098]: the pest or weed control at 0.004 mg in assay [1] was determined as 100%.

Take `C[C@H](NC(=O)c1cc(OC(F)(F)F)cc(C2CC2)c1)c1nc(N2CCOCC2)nn1-c1ncc(C#N)s1` [I-197]: the pest or weed control at 32 µg/disc, 100 g/ha in assay [3] is 100%. With `CC(NC(=O)c1cc(Cl)cc(S(C)(=O)=O)c1)c1nc(-c2ncccn2)nn1-c1ncccn1` (stereo not drawn) [I-052], in assay [1], the pest or weed control at 0.004 mg is 100% and the pest or weed control at 0.02 mg was 100%. In turn, `CNc1nc([C@H](C)NC(=O)c2cc(C(F)(F)F)cc(C(F)(F)F)c2)n(-c2ncc(C#N)s2)n1` [I-208] registered a mortality at 100 g/ha in assay [2] of 100%. On the same count and under the same terms, with `CNc1nc([C@H](C)NC(=O)c2cc(Br)cc(Br)c2)n(-c2ncc(C#N)s2)n1` [I-210] the figure was 100%; with `CNc1nc([C@H](C)NC(=O)c2cc(Br)cc(OC(F)(F)F)c2)n(-c2ncc(C#N)s2)n1` [I-209], 100%. As for `CC(NC(=O)c1cc(Cl)cc(C(F)(F)F)c1)c1nc(SCC(F)(F)F)nn1-c1ccc(Cl)cn1` (stereo not drawn) [I-067], the pest or weed control at 0.02 mg in assay [1] came to 100%.
